Measurements from US10098351B2, “Herbicidal compounds” (SYNGENTA PARTICIPATIONS AG, priority 2014, dated 2018).

Legend:
Format in all cases: in vivo
Echinochloa crus-galli [1] = assay: Post-emergence herbicidal activity, ECHCG; conditions: application post-emergence, 1000 g/Ha, evaluated after 13 days; 5=total damage to plant, 0=no damage to plant
Method: (§1) Seeds of a variety of test species were sown in standard soil in pots. After 8 days cultivation (post-emergence) under controlled conditions in a glasshouse (at 24/16° C., day/night; 14 hours light; 65% humidity), the plants were sprayed with an aqueous spray solution derived from the formulation of the technical active ingredient in acetone/water (50:50) solution containing 0.5% Tween 20 (polyoxyethelyene sorbitan monolaurate, CAS RN 9005-64-5). The test plants were then grown in a glasshouse under controlled conditions (at 24/16° C., day/night; 14 hours light; 65% humidity) and watered twice daily. After 13 days, the test was evaluated (5=total damage to plant; 0=no damage to plant).

Amaranthus retroflexus [2] = assay: Post-emergence herbicidal activity, AMARE; conditions: application post-emergence, 1000 g/Ha, evaluated after 13 days; 5=total damage to plant, 0=no damage to plant
Method: as §1

Abutilon theophrasti [3] = assay: Pre-emergence herbicidal activity, ABUTH; conditions: application pre-emergence, 1000 g/Ha, evaluated after 13 days; 5=total damage to plant, 0=no damage to plant
Method: as §1, with “After” for “After 8 days”, “for one day (pre-emergence)” for “(post-emergence)”

Zea mays [4] = assay: Post-emergence herbicidal activity, ZEAMX; conditions: application post-emergence, 1000 g/Ha, evaluated after 13 days; 5=total damage to plant, 0=no damage to plant
Method: as §1

Lolium perenne [5] = assay: Post-emergence herbicidal activity, LOLPE; conditions: application post-emergence, 1000 g/Ha, evaluated after 13 days; 5=total damage to plant, 0=no damage to plant
Method: as §1

Setaria faberi [6] = assay: Pre-emergence herbicidal activity, SETFA; conditions: application pre-emergence, 1000 g/Ha, evaluated after 13 days; 5=total damage to plant, 0=no damage to plant
Method: as §1, with “After” for “After 8 days”, “for one day (pre-emergence)” for “(post-emergence)”

Abutilon theophrasti [7] = assay: Post-emergence herbicidal activity, ABUTH; conditions: application post-emergence, 1000 g/Ha, evaluated after 13 days; 5=total damage to plant, 0=no damage to plant
Method: as §1

Zea mays [8] = assay: Pre-emergence herbicidal activity, ZEAMX; conditions: application pre-emergence, 1000 g/Ha, evaluated after 13 days; 5=total damage to plant, 0=no damage to plant
Method: as §1, with “After” for “After 8 days”, “for one day (pre-emergence)” for “(post-emergence)”

Echinochloa crus-galli [9] = assay: Pre-emergence herbicidal activity, ECHCG; conditions: application pre-emergence, 1000 g/Ha, evaluated after 13 days; 5=total damage to plant, 0=no damage to plant
Method: as §1, with “After” for “After 8 days”, “for one day (pre-emergence)” for “(post-emergence)”

Lolium perenne [10] = assay: Pre-emergence herbicidal activity, LOLPE; conditions: application pre-emergence, 1000 g/Ha, evaluated after 13 days; 5=total damage to plant, 0=no damage to plant
Method: as §1, with “After” for “After 8 days”, “for one day (pre-emergence)” for “(post-emergence)”

Setaria faberi [11] = assay: Post-emergence herbicidal activity, SETFA; conditions: application post-emergence, 1000 g/Ha, evaluated after 13 days; 5=total damage to plant, 0=no damage to plant
Method: as §1

Amaranthus retroflexus [12] = assay: Pre-emergence herbicidal activity, AMARE; conditions: application pre-emergence, 1000 g/Ha, evaluated after 13 days; 5=total damage to plant, 0=no damage to plant
Method: as §1, with “After” for “After 8 days”, “for one day (pre-emergence)” for “(post-emergence)”

CCO[C@@H]1C(O)N(c2ncc(C(F)(F)F)s2)C(=O)N1C (some centres unmarked) [Compound A8]
ECHCG damage score (Echinochloa crus-galli [1]): 5 | AMARE damage score (Amaranthus retroflexus [2]): 5 | ABUTH damage score (Abutilon theophrasti [3]): 5 | ZEAMX damage score (Zea mays [4]): 5 | LOLPE damage score (Lolium perenne [5]): 5 | SETFA damage score (Setaria faberi [6]): 5 | ABUTH damage score (Abutilon theophrasti [7]): 5 | ZEAMX damage score (Zea mays [8]): 3 | ECHCG damage score (Echinochloa crus-galli [9]): 5 | LOLPE damage score (Lolium perenne [10]): 4 | SETFA damage score (Setaria faberi [11]): 5 | AMARE damage score (Amaranthus retroflexus [12]): 5

CON1C(=O)N(c2ncc(C(F)(F)F)s2)C(O)C1C (centres unmarked) [Compound B7]
ECHCG damage score (Echinochloa crus-galli [1]): 5 | AMARE damage score (Amaranthus retroflexus [2]): 5 | ABUTH damage score (Abutilon theophrasti [3]): 5 | ZEAMX damage score (Zea mays [4]): 4 | LOLPE damage score (Lolium perenne [5]): 5 | SETFA damage score (Setaria faberi [6]): 5 | ABUTH damage score (Abutilon theophrasti [7]): 5 | ZEAMX damage score (Zea mays [8]): 3 | ECHCG damage score (Echinochloa crus-galli [9]): 4 | LOLPE damage score (Lolium perenne [10]): 4 | SETFA damage score (Setaria faberi [11]): 5 | AMARE damage score (Amaranthus retroflexus [12]): 5

CCCOC1C(O)N(c2ncc(C(F)(F)F)s2)C(=O)N1C (centres unmarked) [Compound A1]
ECHCG damage score (Echinochloa crus-galli [1]): 5 | AMARE damage score (Amaranthus retroflexus [2]): 5 | ABUTH damage score (Abutilon theophrasti [3]): 5 | ZEAMX damage score (Zea mays [4]): 3 | LOLPE damage score (Lolium perenne [5]): 5 | SETFA damage score (Setaria faberi [6]): 4 | ABUTH damage score (Abutilon theophrasti [7]): 5 | ZEAMX damage score (Zea mays [8]): 1 | ECHCG damage score (Echinochloa crus-galli [9]): 5 | LOLPE damage score (Lolium perenne [10]): 4 | SETFA damage score (Setaria faberi [11]): 5 | AMARE damage score (Amaranthus retroflexus [12]): 5

CN1C(=O)N(c2ncc(C(F)(F)F)s2)C(O)C1O (centres unmarked) [Compound A4, 4,5-dihydroxy-1-methyl-3-[5-(trifluoromethyl)thiazol-2-yl]imidazolidin-2-one]
ECHCG damage score (Echinochloa crus-galli [1]): 5 | AMARE damage score (Amaranthus retroflexus [2]): 5 | ABUTH damage score (Abutilon theophrasti [3]): 5 | ZEAMX damage score (Zea mays [4]): 4 | LOLPE damage score (Lolium perenne [5]): 5 | SETFA damage score (Setaria faberi [6]): 4 | ABUTH damage score (Abutilon theophrasti [7]): 5 | ZEAMX damage score (Zea mays [8]): 3 | ECHCG damage score (Echinochloa crus-galli [9]): 5 | LOLPE damage score (Lolium perenne [10]): 4 | SETFA damage score (Setaria faberi [11]): 5 | AMARE damage score (Amaranthus retroflexus [12]): 5

CCOC1C(O)N(c2ncc(C(C)C)s2)C(=O)N1C (centres unmarked) [Compound A10]
ECHCG damage score (Echinochloa crus-galli [1]): 2 | AMARE damage score (Amaranthus retroflexus [2]): 3 | ABUTH damage score (Abutilon theophrasti [3]): 0 | ZEAMX damage score (Zea mays [4]): 0 | SETFA damage score (Setaria faberi [6]): 0 | ABUTH damage score (Abutilon theophrasti [7]): 4 | ZEAMX damage score (Zea mays [8]): 0 | ECHCG damage score (Echinochloa crus-galli [9]): 0 | LOLPE damage score (Lolium perenne [10]): 0 | SETFA damage score (Setaria faberi [11]): 2 | AMARE damage score (Amaranthus retroflexus [12]): 4

C[C@@H]1C(O)N(c2ncc(C(F)(F)F)s2)C(=O)N1C (mixture of isomers) [Compound A6]
ECHCG damage score (Echinochloa crus-galli [1]): 5 | AMARE damage score (Amaranthus retroflexus [2]): 5 | ABUTH damage score (Abutilon theophrasti [3]): 5 | ZEAMX damage score (Zea mays [4]): 5 | LOLPE damage score (Lolium perenne [5]): 5 | SETFA damage score (Setaria faberi [6]): 5 | ABUTH damage score (Abutilon theophrasti [7]): 5 | ZEAMX damage score (Zea mays [8]): 4 | ECHCG damage score (Echinochloa crus-galli [9]): 5 | LOLPE damage score (Lolium perenne [10]): 5 | SETFA damage score (Setaria faberi [11]): 5 | AMARE damage score (Amaranthus retroflexus [12]): 5

CCO[C@H]1C(O)N(c2ncc(C(F)(F)F)s2)C(=O)N1C (some centres unmarked) [Compound A9]
ECHCG damage score (Echinochloa crus-galli [1]): 2 | AMARE damage score (Amaranthus retroflexus [2]): 5 | ABUTH damage score (Abutilon theophrasti [3]): 2 | ZEAMX damage score (Zea mays [4]): 2 | LOLPE damage score (Lolium perenne [5]): 3 | SETFA damage score (Setaria faberi [6]): 4 | ABUTH damage score (Abutilon theophrasti [7]): 3 | ZEAMX damage score (Zea mays [8]): 1 | ECHCG damage score (Echinochloa crus-galli [9]): 1 | LOLPE damage score (Lolium perenne [10]): 2 | SETFA damage score (Setaria faberi [11]): 4 | AMARE damage score (Amaranthus retroflexus [12]): 5

COC1C(O)N(c2ncc(C(F)(F)F)s2)C(=O)N1C (centres unmarked) [Compound A3]
ECHCG damage score (Echinochloa crus-galli [1]): 5 | AMARE damage score (Amaranthus retroflexus [2]): 5 | ABUTH damage score (Abutilon theophrasti [3]): 5 | ZEAMX damage score (Zea mays [4]): 4 | LOLPE damage score (Lolium perenne [5]): 5 | SETFA damage score (Setaria faberi [6]): 5 | ABUTH damage score (Abutilon theophrasti [7]): 5 | ZEAMX damage score (Zea mays [8]): 2 | ECHCG damage score (Echinochloa crus-galli [9]): 5 | LOLPE damage score (Lolium perenne [10]): 5 | SETFA damage score (Setaria faberi [11]): 5 | AMARE damage score (Amaranthus retroflexus [12]): 5

CCOC1C(O)N(c2ncc(C(F)(F)F)s2)C(=O)N1C (centres unmarked) [Compound A2, 5-ethoxy-4-hydroxy-1-methyl-3-[5-(trifluoromethyl)thiazol-2-yl]imidazolidin-2-one]
ECHCG damage score (Echinochloa crus-galli [1]): 5 | AMARE damage score (Amaranthus retroflexus [2]): 5 | ABUTH damage score (Abutilon theophrasti [3]): 5 | ZEAMX damage score (Zea mays [4]): 5 | LOLPE damage score (Lolium perenne [5]): 5 | SETFA damage score (Setaria faberi [6]): 5 | ABUTH damage score (Abutilon theophrasti [7]): 5 | ZEAMX damage score (Zea mays [8]): 3 | ECHCG damage score (Echinochloa crus-galli [9]): 5 | LOLPE damage score (Lolium perenne [10]): 5 | SETFA damage score (Setaria faberi [11]): 5 | AMARE damage score (Amaranthus retroflexus [12]): 5

CN1CC(O)N(c2ncc(C(F)(F)F)s2)C1=O (centres unmarked) [Compound A5, 4-hydroxy-1-methyl-3-[5-(trifluoromethyl)thiazol-2-yl]imidazolidin-2-one]
ECHCG damage score (Echinochloa crus-galli [1]): 5 | AMARE damage score (Amaranthus retroflexus [2]): 5 | ABUTH damage score (Abutilon theophrasti [3]): 5 | ZEAMX damage score (Zea mays [4]): 5 | LOLPE damage score (Lolium perenne [5]): 5 | SETFA damage score (Setaria faberi [6]): 5 | ABUTH damage score (Abutilon theophrasti [7]): 5 | ZEAMX damage score (Zea mays [8]): 2 | ECHCG damage score (Echinochloa crus-galli [9]): 4 | LOLPE damage score (Lolium perenne [10]): 5 | SETFA damage score (Setaria faberi [11]): 5 | AMARE damage score (Amaranthus retroflexus [12]): 5

CN1CC(O)N(c2ncc(C(C)(C)C)s2)C1=O (centres unmarked) [Compound A7]
ECHCG damage score (Echinochloa crus-galli [1]): 5 | AMARE damage score (Amaranthus retroflexus [2]): 5 | ABUTH damage score (Abutilon theophrasti [3]): 5 | ZEAMX damage score (Zea mays [4]): 5 | LOLPE damage score (Lolium perenne [5]): 5 | SETFA damage score (Setaria faberi [6]): 5 | ABUTH damage score (Abutilon theophrasti [7]): 5 | ZEAMX damage score (Zea mays [8]): 3 | ECHCG damage score (Echinochloa crus-galli [9]): 4 | LOLPE damage score (Lolium perenne [10]): 4 | SETFA damage score (Setaria faberi [11]): 5 | AMARE damage score (Amaranthus retroflexus [12]): 5
